Results taken from patent publication US20090030086A1, “ANTIMICROBIAL AGENTS” (priority 2005, published 2009).
In brackets after ≈: the same amount, converted by molar mass. Like-named read-outs stand apart in the source and are kept apart here.

What was measured:
P. acnes NCTC 737 [1] = assay: MBC assay; type: cell-based, Propionibacterium acnes
Procedure: (§1) The Propionibacterium spp organisms were cultured and maintained on Wilkins-Chalgren Anaerobe Medium (agar and broth) at pH 6.0; cultures were incubated anaerobically at 37° C. for 72 hours.
(§2) This assay, normally carried out after an MIC assay, determines the minimum concentration of a compound that is lethal to the micro-organism being tested.
(§3) These samples were then individually sub-cultured on non-selective agar medium, under the incubation conditions described above. Following incubation they were examined visually for bacterial growth.
(§4) MIC, MBC and DDA assays, as described above, were carried out using a range of different benzoquinones and hydroquinones. Supplemented DDA assays, in the presence of salt and lipid, were also conducted.

S. aureus ATCC 29213 [2] = assay: MBC assay; type: cell-based, Staphylococcus aureus
Procedure: (§5) The staphylococci and enterococci were cultured and maintained on Mueller-Hinton Medium (agar and broth) at pH 7.2; they were incubated aerobically at 37° C. for 24 hours.
as §2, §3
(§6) The following experiments all used S. aureus ATCC 29213 as the test organism. MIC, MBC and DDA assays, as described above, were carried out using a range of different benzoquinones and hydroquinones. Supplemented DDA assays, in the presence of salt, lipid and blood, were also conducted.

P. acnes NCTC 737 [3] = assay: MIC assay; type: cell-based, Propionibacterium acnes
Procedure: 2. Propionibacterium spp.—the principal propionibacterial strain used in these studies was Propionibacterium acnes NCTC 737.
as §1
(§7) This is a standard international method for quantitatively assessing the antimicrobial activity of a compound in a liquid medium. The method used a 96-well microtitre plate, capable of holding about 200 μl of liquid per well. […] The culture media were as described above for the relevant test organisms.
(§8) The wells were inoculated with a liquid suspension of freshly grown micro-organism and incubated under the conditions described above. After incubation, the microtitre plate was examined visually (with the aid of a light box) for cloudiness in each well, which would indicate microbial growth. The MIC value was recorded as the lowest concentration of test compound required to inhibit microbial growth, i.e., the lowest concentration for which the liquid in the well remained clear.
(§9) The assays were conducted in duplicate and included both negative (culture medium only) and positive (culture medium, diluting solvent and inoculum) controls.
as §4

S. aureus ATCC 29213 [4] = assay: Supplemented disc diffusion assay; type: cell-based, Staphylococcus aureus; conditions: for zone of inhibition at 200 µg/disc: Staphylococcus aureus, ATCC29213, 24 h
Procedure: as §5
(§10) A sterile paper disc was impregnated with a sample of the test compound and a minimum of 30 minutes allowed for the solvents to evaporate as far as possible. The disc was then placed on an agar plate onto which the test micro-organism had been inoculated. The plate was then incubated under the conditions described above, following which it was examined visually for signs of bacterial growth. […] The diameter of this zone of “inhibition” was measured using a ProtoCOL™ automated zone sizer (Synbiosis, Cambridge, UK).
(§11) Performance under these conditions can provide a more reliable indication of activity on topical application. For assays conducted using S. aureus strains, the supplements were defibrinated horse blood (5% v/v), lipid (Tween™ 80 at 1% v/v) and sodium chloride (100 mM). For those using Propionibacterium spp. strains, the supplements were lipid (Tween™ 80 at 1% v/v) and sodium chloride (100 mM).
as §6
(§12) For most DDA assays, 200 μg of each compound was loaded onto each disc.

P. acnes NCTC 737 [5] = assay: Supplemented disc diffusion assay; type: cell-based, Propionibacterium acnes; conditions: for DDA + lipid: Tween 80 at 1% v/v; for zone of inhibition at 200 µg/disc: Cutibacterium acnes, NCTC737, 72 h
Procedure: as §1, §10, §11, §4, §12

S. aureus ATCC 29213 [6] = assay: Disc diffusion assay (DDA); type: cell-based, Staphylococcus aureus; conditions: for DDA (diameter of zone of inhibition): S. aureus ATCC 29213, unsupplemented agar, 200 μg per disc (thymoquinone 50 μg, 2,6-dimethoxy-p-benzoquinone 100 μg); for zone of inhibition at 200 µg/disc: Staphylococcus aureus, ATCC29213, read-out: DDA (diameter of zone of inhibition)
Procedure: as §5, §10
(§13) The area of the zone of inhibition was calculated from the measured zone diameter (D) using the formula π(D/2)^2.
as §12

S. aureus ATCC 29213 [7] = assay: MIC assay; type: cell-based, Staphylococcus aureus
Procedure: 1. Staphylococcus aureus—the principal staphylococcal test micro-organism used in these studies was Staphylococcus aureus ATCC 29213. This strain is the one recommended for QC/QA purposes in Minimum Inhibitory Concentration (MIC) assays by the US Clinical and Laboratory Standards Institute (formerly the NCCLS), an FDA-recognised body.
as §5, §7, §8, §9, §6

P. acnes NCTC 737 [8] = assay: Disc diffusion assay (DDA); type: cell-based, Propionibacterium acnes; conditions: for DDA (diameter of zone of inhibition): P. acnes NCTC 737, unsupplemented agar, 200 μg per disc (2,6-dimethoxy-p-benzoquinone 100 μg); for zone of inhibition at 200 µg/disc: Cutibacterium acnes, NCTC737, read-out: DDA (diameter of zone of inhibition)
Procedure: as §1, §10, §13, §12

[9] = P. acnes NCTC 737, Wilkins-Chalgren broth pH 6.0, anaerobic, 37° C., 72 hours
[10] = P. acnes NCTC 737, 200 μg per disc (2,6-dimethoxy-p-benzoquinone 100 μg)
[11] = S. aureus ATCC 29213, Mueller-Hinton broth pH 7.2, aerobic, 37° C., 24 hours
[12] = Staphylococcus aureus, ATCC29213
[13] = Cutibacterium acnes, NCTC737, 72 h, pH 6
[14] = Staphylococcus aureus, ATCC29213, 24 h, pH 7.2

| Compound | MIC/MBC ratio (P. acnes NCTC 737 [1]; P. acnes NCTC 737) | MIC/MBC ratio (S. aureus ATCC 29213 [2]) | MIC (P. acnes NCTC 737 [3]; [9]) | DDA + lipid (P. acnes NCTC 737 [5]; [10]) | DDA (diameter of zone of inhibition) (S. aureus ATCC 29213 [6]) | MIC (S. aureus ATCC 29213 [7]; [11]) | DDA (diameter of zone of inhibition) (P. acnes NCTC 737 [8]) | MBC (P. acnes NCTC 737 [1]; Cutibacterium acnes, NCTC737) | MBC (S. aureus ATCC 29213 [2]; [12]) | MIC (P. acnes NCTC 737 [3]; [13]) | zone of inhibition at 200 µg/disc (S. aureus ATCC 29213 [4]; read-out: DDA + blood) | zone of inhibition at 200 µg/disc (S. aureus ATCC 29213 [4]; read-out: DDA + lipid) | zone of inhibition at 200 µg/disc (S. aureus ATCC 29213 [4]; read-out: DDA + salt) | zone of inhibition at 200 µg/disc (P. acnes NCTC 737 [5]; read-out: DDA + lipid) | zone of inhibition at 200 µg/disc (P. acnes NCTC 737 [5]; read-out: DDA + salt) | zone of inhibition at 200 µg/disc (S. aureus ATCC 29213 [6]) | MIC (S. aureus ATCC 29213 [7]; [14]) | zone of inhibition at 200 µg/disc (P. acnes NCTC 737 [8]) | other results |
| --- | --- | --- | --- | --- | --- | --- | --- | --- | --- | --- | --- | --- | --- | --- | --- | --- | --- | --- | --- |
| Oc1cc(Cl)c(O)cc1Cl [2,5-dichloro-p-hydroquinone] | 1 | 1 | 62.5 µg/mL (≈ 349 µM) | 0.0 mm | 19.90 mm | 15.6 µg/mL (≈ 87.1 µM) | 13.46 mm |  |  |  |  |  |  |  |  |  |  |  | MBC (P. acnes NCTC 737 [1]; P. acnes NCTC 737): 62.5 µg/mL (≈ 349 µM); MBC (S. aureus ATCC 29213 [2]): 15.6 µg/mL (≈ 87.1 µM); DDA + lipid (S. aureus ATCC 29213 [4]; S. aureus ATCC 29213, Tween 80 at 1% v/v, 200 μg per disc (thymoquinone 50 μg, 2,6-dimethoxy-p-benzoquinone 100 μg)): 15.63 mm; DDA + blood (S. aureus ATCC 29213 [4]; S. aureus ATCC 29213, defibrinated horse blood 5% v/v, 200 μg per disc (thymoquinone 50 μg, 2,6-dimethoxy-p-benzoquinone 100 μg)): 13.44 mm; DDA + salt (S. aureus ATCC 29213 [4]; S. aureus ATCC 29213, sodium chloride 100 mM, 200 μg per disc (thymoquinone 50 μg, 2,6-dimethoxy-p-benzoquinone 100 μg)): 18.75 mm; DDA + salt (P. acnes NCTC 737 [5]; P. acnes NCTC 737, sodium chloride 100 mM, 200 μg per disc (2,6-dimethoxy-p-benzoquinone 100 μg)): 18.64 mm |
| Cc1cc(O)c(C)c(O)c1 [2,5-dimethylresorcinol] | 0.125 | <0.06 |  |  |  |  |  | 31.2 µg/mL (≈ 226 µM) | > 250 µg/mL | 3.9 µg/mL (≈ 28.2 µM) | 0 mm | 13.8 mm | 16.9 mm | 0 mm | 0 mm | 16.7 mm | 15.6 µg/mL (≈ 113 µM) | 0 mm |  |
| COC1=CC(=O)C=C(OC)C1=O [2,6-dimethoxy-p-benzoquinone] | 0.5 | 0.5 |  |  |  |  |  | 31.2 µg/mL (≈ 186 µM) | 15.6 µg/mL (≈ 92.8 µM) | 15.6 µg/mL (≈ 92.8 µM) | 17.2 mm | 23.7 mm | 22.2 mm | 15.6 mm | 16.5 mm | 22.2 mm | 7.8 µg/mL (≈ 46.4 µM) | 0 mm | activity against S. aureus ATCC 29213 (in words) (S. aureus ATCC 29213 [7]): strongly so |
| CCc1cc(O)ccc1O [2-ethyl-p-hydroquinone] | 0.25 | 0.5 | 7.8 µg/mL (≈ 56.5 µM) | 0.0 mm | 21.06 mm | 7.8 µg/mL (≈ 56.5 µM) | 9.90 mm |  |  |  |  |  |  |  |  |  |  |  |  |
